The results in this text go back to patent US20230024096A1, “BIFUNCTIONAL COMPOUNDS FOR THE TREATMENT OF CANCER” (Hoffmann-La Roche Inc., priority 2019, published 2023).

A word on the Emax: it is the maximal effect, on the per cent scale that the assay sets.

The test addresses T1, SMARCA2 (Homo sapiens, UniProt P51531).
T1 construct: endogenous in cells; host or cells: HT1080 (CRISPR HiBiT knock-in clone, generated in house)
Put plainly: SMARCA2 HiBiT degradation assay (cellular). It counts as cell-based. As to conditions: table head names A549; for DC50: 6 h incubation, HiBiT-tagged SMARCA2, luminescence read-out, read-out: HiBit A549 SMARCA2 IP (nM) 6 h; for Emax: A549, 6 h incubation, Emax = amount of residual protein remaining in the cell following compound treatment.

T1 sequence (P51531 whole entry): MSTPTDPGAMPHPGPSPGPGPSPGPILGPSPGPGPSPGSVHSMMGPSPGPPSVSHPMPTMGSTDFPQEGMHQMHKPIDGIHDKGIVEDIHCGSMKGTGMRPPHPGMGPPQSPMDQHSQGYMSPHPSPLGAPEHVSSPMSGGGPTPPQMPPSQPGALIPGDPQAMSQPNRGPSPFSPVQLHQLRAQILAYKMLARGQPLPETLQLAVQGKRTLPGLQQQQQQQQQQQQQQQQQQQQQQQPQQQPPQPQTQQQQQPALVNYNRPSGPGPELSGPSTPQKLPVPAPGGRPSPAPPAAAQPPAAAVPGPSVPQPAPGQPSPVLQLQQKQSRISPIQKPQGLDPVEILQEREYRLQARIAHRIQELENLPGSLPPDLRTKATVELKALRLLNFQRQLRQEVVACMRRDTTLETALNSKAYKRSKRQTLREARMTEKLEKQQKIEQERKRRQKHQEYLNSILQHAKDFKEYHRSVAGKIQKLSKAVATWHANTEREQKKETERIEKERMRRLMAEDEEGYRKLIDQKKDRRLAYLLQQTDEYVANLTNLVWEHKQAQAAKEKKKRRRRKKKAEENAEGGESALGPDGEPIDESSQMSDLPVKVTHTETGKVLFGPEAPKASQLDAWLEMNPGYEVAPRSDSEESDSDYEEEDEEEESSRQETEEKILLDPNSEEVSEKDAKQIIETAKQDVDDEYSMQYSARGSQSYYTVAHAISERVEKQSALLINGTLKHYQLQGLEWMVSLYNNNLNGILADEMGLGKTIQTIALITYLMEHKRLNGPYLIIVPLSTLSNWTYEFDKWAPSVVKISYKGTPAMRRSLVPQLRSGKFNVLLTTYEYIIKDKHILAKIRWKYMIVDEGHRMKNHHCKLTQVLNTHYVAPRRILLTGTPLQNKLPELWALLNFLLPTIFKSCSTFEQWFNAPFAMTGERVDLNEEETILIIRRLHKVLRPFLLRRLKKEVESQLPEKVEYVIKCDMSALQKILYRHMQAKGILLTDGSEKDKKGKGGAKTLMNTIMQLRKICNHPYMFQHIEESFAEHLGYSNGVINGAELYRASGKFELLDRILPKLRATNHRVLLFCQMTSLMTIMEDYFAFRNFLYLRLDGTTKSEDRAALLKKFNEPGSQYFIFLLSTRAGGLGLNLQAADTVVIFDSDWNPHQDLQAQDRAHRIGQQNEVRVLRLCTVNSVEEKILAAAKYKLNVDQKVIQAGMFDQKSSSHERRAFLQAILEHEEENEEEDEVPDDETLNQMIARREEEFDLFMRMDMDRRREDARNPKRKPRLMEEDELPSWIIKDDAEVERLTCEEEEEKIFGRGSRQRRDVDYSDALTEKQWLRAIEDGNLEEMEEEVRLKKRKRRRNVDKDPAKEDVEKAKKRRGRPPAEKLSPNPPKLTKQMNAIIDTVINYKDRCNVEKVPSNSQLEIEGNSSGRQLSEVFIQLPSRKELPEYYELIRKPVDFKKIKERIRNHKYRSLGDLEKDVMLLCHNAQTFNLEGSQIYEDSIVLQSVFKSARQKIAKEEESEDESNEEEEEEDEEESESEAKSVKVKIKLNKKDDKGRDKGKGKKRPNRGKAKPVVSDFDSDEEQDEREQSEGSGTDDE

In the case of `Nc1nnc(-c2ccccc2O)cc1N1CCN(c2ccccc2)C(C(=O)NC2CCN(C(=O)CC3CCN(c4ccc5c(c4)C(=O)N(C4CCC(=O)NC4=O)C5=O)CC3)CC2)C1` (stereo not drawn) [Example 53, 4-[3-amino-6-(2-hydroxyphenyl)pyridazin-4-yl]-N-[1-[2-[1-[2-(2,6-dioxo-3-piperidyl)-1,3-dioxo-isoindolin-5-yl]-4-piperidyl]acetyl]-4-piperidyl]-1-phenyl-piperazine-2-carboxamide], the DC50 was found to be 122 nM and the Emax turned out to be 46%.
Turning to `Nc1nnc(-c2ccccc2O)cc1N1CCC(C(=O)N2CC3(CCN(C(=O)CCC4CCN(c5ccc6c(c5)C(=O)N(C5CCC(=O)NC5=O)C6=O)CC4)C3)C2)(c2ccccc2)CC1` (stereo not drawn) [Example 188, 5-(4-(3-(2-(1-(3-amino-6-(2-hydroxyphenyl)pyridazin-4-yl)-4-phenylpiperidine-4-carbonyl)-2,6-diazaspiro[3.4]octan-6-yl)-3-oxopropyl)piperidin-1-yl)-2-(2,6-dioxopiperidin-3-yl)isoindoline-1,3-dione], the DC50 amounted to 193 nM and the Emax was 50%.
The like results for `Nc1nnc(-c2ccccc2O)cc1N1CCC(C(=O)N2CCC3(CC2)CN(C(=O)CN2CCC(c4ccc(NC5CCC(=O)NC5=O)cc4)CC2)CCO3)(c2ccccc2)CC1` (stereo not drawn) [Example 169, 3-((4-(1-(2-(9-(1-(3-amino-6-(2-hydroxyphenyl)pyridazin-4-yl)-4-phenylpiperidine-4-carbonyl)-1-oxa-4,9-diazaspiro[5.5]undecan-4-yl)-2-oxoethyl)piperidin-4-yl)phenyl)amino)piperidine-2,6-dione] were, in that order, 49 nM and 56%.
The like results for `Nc1nnc(-c2ccccc2O)cc1N1CC2CCC(C1)N2c1cccc(CN2CCC(C(=O)N3CCC(c4ccc(OC5CCC(=O)NC5=O)cc4)CC3)CC2)c1` (racemic) [Example 92, rac-3-[4-[1-[1-[[3-[3-[3-amino-6-(2-hydroxyphenyl)pyridazin-4-yl]-3,8-diazabicyclo[3.2.1]octan-8-yl]phenyl]methyl]piperidine-4-carbonyl]-4-piperidyl]phenoxy]piperidine-2,6-dione] were, in that order, 17 nM and 41%.
Taken in the same sequence, the figures for `Nc1nnc(-c2ccccc2O)cc1OC1CCCN(c2ccc(N3CCN(CCCCCCCCCc4ccnc(CNc5cccc6c5C(=O)N(C5CCC(=O)NC5=O)C6=O)c4)CC3)cc2)C1` (stereo not drawn) [Example 139, 4-[[4-[9-[4-[4-[3-[3-amino-6-(2-hydroxyphenyl)pyridazin-4-yl]oxy-1-piperidyl]phenyl]piperazin-1-yl]nonyl]-2-pyridyl]methylamino]-2-(2,6-dioxo-3-piperidyl)isoindoline-1,3-dione] were 802 nM and 62%.
With `Nc1nnc(-c2ccccc2O)cc1OC1CCCN(c2ccc(N3CCN(C(=O)CCCCCCCCN4CCC(Oc5ccc6c(c5)C(=O)N(C5CCC(=O)NC5=O)C6=O)CC4)CC3)cc2)C1` (stereo not drawn) [Example 44, 5-[[1-[9-[4-[4-[3-[3-amino-6-(2-hydroxyphenyl)pyridazin-4-yl]oxy-1-piperidyl]phenyl]piperazin-1-yl]-9-oxo-nonyl]-4-piperidyl]oxy]-2-(2,6-dioxo-3-piperidyl)isoindoline-1,3-dione], the DC50 was determined as 133 nM and the Emax was 61%.
Take `Cc1c(C(=O)N2CCN(C(=O)CCC3CCN(c4ccc5c(c4)C(=O)N(C4CCC(=O)NC4=O)C5=O)CC3)CC2)cccc1N1C2CCC1CN(c1cc(-c3ccccc3O)nnc1N)C2` (racemic) [Example 117, rac-5-[4-[3-[4-[3-[3-[3-amino-6-(2-hydroxyphenyl)pyridazin-4-yl]-3,8-diazabicyclo[3.2.1]octan-8-yl]-2-methyl-benzoyl]piperazin-1-yl]-3-oxo-propyl]-1-piperidyl]-2-(2,6-dioxo-3-piperidyl)isoindoline-1,3-dione]: the DC50 was 144 nM and the Emax was 50%.
Turning to `Nc1nnc(-c2ccccc2O)cc1OCC(CNC(=O)C1CCN(c2ccc3c(c2)C(=O)N(C2CCC(=O)NC2=O)C3=O)CC1)c1ccccc1` (racemic) [Example 97, N-[3-[3-amino-6-(2-hydroxyphenyl)pyridazin-4-yl]oxy-2-phenyl-propyl]-1-[2-(2,6-dioxo-3-piperidyl)-1,3-dioxo-isoindolin-5-yl]piperidine-4-carboxamide (racemic mixture of diastereomers)], the DC50 came to 659 nM and the maximum response (Emax) is 30%.
For the molecule `Nc1nnc(-c2ccccc2O)cc1N1CCC(C(=O)N2CCC(NC(=O)C3CCN(c4ccc5c(c4)C(=O)N(C4CCC(=O)NC4=O)C5=O)CC3)CC2)(c2ccccc2)CC1` (stereo not drawn) [Example 119, N-(1-(1-(3-amino-6-(2-hydroxyphenyl)pyridazin-4-yl)-4-phenylpiperidine-4-carbonyl)piperidin-4-yl)-1-(2-(2,6-dioxopiperidin-3-yl)-1,3-dioxoisoindolin-5-yl)piperidine-4-carboxamide], the DC50 was found to be 35 nM and the Emax was found to be 50%.
The like results for `Nc1nnc(-c2ccccc2O)cc1N1CCC(CNC(=O)C2CCN(c3cccc4c3C(=O)N(C3CCC(=O)NC3=O)C4=O)CC2)(c2ccccc2)CC1` (stereo not drawn) [Example 71, N-[[1-[3-amino-6-(2-hydroxyphenyl)pyridazin-4-yl]-4-phenyl-4-piperidyl]methyl]-1-[2-(2,6-dioxo-3-piperidyl)-1,3-dioxo-isoindolin-4-yl]piperidine-4-carboxamide] were, in that order, 326 nM and 46%.
Taken in the same sequence, the figures for `Nc1nnc(-c2ccccc2O)cc1OC1CCCN(c2ccc(OCCN3CCN(C(=O)CCCCCCCCn4cc(CNc5cccc6c5C(=O)N(C5CCC(=O)NC5=O)C6=O)nn4)CC3)cc2)C1` (stereo not drawn) [Example 27, 4-[[1-[9-[4-[2-[4-[3-[3-amino-6-(2-hydroxyphenyl)pyridazin-4-yl]oxy-1-piperidyl]phenoxy]ethyl]piperazin-1-yl]-9-oxo-nonyl]triazol-4-yl]methylamino]-2-(2,6-dioxo-3-piperidyl)isoindoline-1,3-dione] were 333 nM and 57%.
As for `Nc1nnc(-c2ccccc2O)cc1N1CC2CCC(C1)N2c1cccc(OCCN2CCN(C(=O)CCCCCCCNc3cccc4c3C(=O)N(C3CCC(=O)NC3=O)C4=O)CC2)c1` (racemic) [Example 11, rac-4-[[8-[4-[2-[3-[3-[3-amino-6-(2-hydroxyphenyl)pyridazin-4-yl]-3,8-diazabicyclo[3.2.1]octan-8-yl]phenoxy]ethyl]piperazin-1-yl]-8-oxo-octyl]amino]-2-(2,6-dioxo-3-piperidyl)isoindoline-1,3-dione], the DC50 was 146 nM and the Emax amounted to 64%.
The like results for `Nc1nnc(-c2ccccc2O)cc1N1CC2CCC(C1)N2c1cccc(CN2CCN(C(=O)C3CN(c4ccc5c(c4)C(=O)N(C4CCC(=O)NC4=O)C5=O)C3)CC2)c1` (racemic) [Example 179, rac-5-[3-[4-[[3-[3-[3-amino-6-(2-hydroxyphenyl)pyridazin-4-yl]-3,8-diazabicyclo[3.2.1]octan-8-yl]phenyl]methyl]piperazine-1-carbonyl]azetidin-1-yl]-2-(2,6-dioxo-3-piperidyl)isoindoline-1,3-dione] were, in that order, 100 nM and 39%.
In the case of `Nc1nnc(-c2ccccc2O)cc1N1CCC2(CC1)CN(c1cccc(OCCN3CCN(C(=O)C4CCN(c5ccc6c(c5)C(=O)N(C5CCC(=O)NC5=O)C6=O)CC4)CC3)c1)CCO2` (stereo not drawn) [Example 83, 5-(4-(4-(2-(3-(9-(3-amino-6-(2-hydroxyphenyl)pyridazin-4-yl)-1-oxa-4,9-diazaspiro[5.5]undecan-4-yl)phenoxy)ethyl)piperazine-1-carbonyl)piperidin-1-yl)-2-(2,6-dioxopiperidin-3-yl)isoindoline-1,3-dione], the DC50 is 273 nM and the Emax stood at 59%.
As to `Nc1nnc(-c2ccccc2O)cc1N1CC2CCC(C1)N2c1cccc(CN2CCN(C(=O)CC3CCN(c4ccc5c(c4)C(=O)N(C4CCC(=O)NC4=O)C5=O)CC3)CC2)c1` (racemic) [Example 48, rac-5-[4-[2-[4-[[3-[3-[3-Amino-6-(2-hydroxyphenyl)pyridazin-4-yl]-3,8-diazabicyclo[3.2.1]octan-8-yl]phenyl]methyl]piperazin-1-yl]-2-oxo-ethyl]-1-piperidyl]-2-(2,6-dioxo-3-piperidyl)isoindoline-1,3-dione], the DC50 was 15 nM and the Emax came out at 45%.
Consider `Nc1nnc(-c2ccccc2O)cc1N1CC(Oc2ccc(CN3CCN(C(=O)CCCCCCNc4cccc5c4C(=O)N(C4CCC(=O)NC4=O)C5=O)CC3)cc2)C1` (stereo not drawn) [Example 67, 4-[[7-[4-[[4-[1-[3-amino-6-(2-hydroxyphenyl)pyridazin-4-yl]azetidin-3-yl]oxyphenyl]methyl]piperazin-1-yl]-7-oxo-heptyl]amino]-2-(2,6-dioxo-3-piperidyl)isoindoline-1,3-dione], for which the DC50 was found to be 37 nM and the Emax turned out to be 54%.
Turning to `Nc1nnc(-c2ccccc2O)cc1N1CCC(CNC(=O)C2CCN(c3ccc4c(c3)C(=O)N(C3CCC(=O)NC3=O)C4=O)CC2)(c2ccccc2)CC1` (stereo not drawn) [Example 74, N-((1-(3-amino-6-(2-hydroxyphenyl)pyridazin-4-yl)-4-phenylpiperidin-4-yl)methyl)-1-(2-(2,6-dioxopiperidin-3-yl)-1,3-dioxoisoindolin-5-yl)piperidine-4-carboxamide], the DC50 was determined as 70 nM and the Emax was 46%.
Taken in the same sequence, the figures for `Nc1nnc(-c2ccccc2O)cc1N1CC2CCC(C1)N2c1cccc(CN2CCC(C(=O)N3C[C@@H]4CN(c5ccc6c(c5)C(=O)N(C5CCC(=O)NC5=O)C6=O)C[C@@H]4C3)CC2)c1` (relative stereo) [Example 171, rac-2-(2,6-dioxo-3-piperidyl)-5-[rel-(3aR,6aS)-5-[1-[[3-[3-[3-amino-6-(2-hydroxyphenyl)pyridazin-4-yl]-3,8-diazabicyclo[3.2.1]octan-8-yl]phenyl]methyl]piperidine-4-carbonyl]-1,3,3a,4,6,6a-hexahydropyrrolo[3,4-c]pyrrol-2-yl]isoindoline-1,3-dione] were 66 nM and 40%.
